Laboratory results taken from US11896707B2, “Cosmetic preparations comprising Daphne extracts” (ETH Zurich, priority 2018, dated 2024).

Experiments:
[1] = test system: lymphatic endothelial cell (LEC); experiment: LEC sprouting assay (LEC-covered dextran beads, sprouts per bead); assay type: cell-based
Description: Stimulation of the lymphatic system: Lymph vessels fulfill an important role in order to maintain the microenvironment surrounding tissue in a constant state by removing unwanted substances present in skin as well as water and protein constantly escaping from blood vessels. […] This action was tested using in vitro test methods. In particular, using a model of sprouting assay developed previously (c.f. ADD Reference SCHULZ MM ET AL., PNAS 2012: PMID 22949700), a library of plant extracts was screened for extracts inducing lymphatic endothelial cell (LEC) sprouting. The key findings were further verified and analysed to characterize the active ingredients. The advantageous effects of the plant extracts were further confirmed by conducting relevant cell proliferation assays, in vitro migration assays and LEC tube formation assays. Given the positive results in all above mentioned assays, one can deduct the positive effect of the plant extracts and the active ingredient thereof, on improving lymphatic vascular function.
After a 24 hour incubation of fluorescently labeled LEC (lymphatic endothelial cell)-covered dextran beads with 10 pg/mL of extracts from a library of 1954 plant-derived samples, sprout formation was assessed by determining the ratio of sprouts per bead. 0.1% DMSO served as a vehicle control. Each extract was tested as 1-plicate and the entire library was screened in two independent replicates.
Sprout formation was assessed by determining the ratio of sprouts per bead. 0.1% DMSO and VEGF-A (20 ng/mL) served as negative and positive controls respectively.
0.1% DMSO served as a vehicle control and VEGF-A (20 ng/mL) as a positive control.

[2] = test system: LEC: lymphatic endothelial cell; experiment: LEC proliferation in vitro; assay type: cell-based
Description: Selectivity was examined using D. giraldii extracts. D. giraldii extract (CH3OH) promoted endothelial cell proliferation in vitro. […] At least 2 independent experiments with n=5 were performed for each cell type. LEC: lymphatic endothelial cell; HDFB: human dermal fibroblast; HaCaT: immortalized human keratinocyte; BEC: blood endothelial cell.
Daphnetoxin induced LEC proliferation most potently at 0.03 pM reaching 247±38% of control (0.1% DMSO).

[3] = test system: LEC: lymphatic endothelial cell; experiment: Toxicity on LEC; assay type: cell-based; details: FIG. 8
Description: (§1) Toxicity of the extracts according to example 2 was investigated. […] (LEC: lymphatic endothelial cell; HDFB: human dermal fibroblast; HaCaT: immortalized human keratinocyte; BEC: blood endothelial cell). The results are summarized in FIG. 8 and indicate its usefulness in cosmetic applications.

[4] = test system: HDFB: human dermal fibroblast; experiment: Toxicity on HDFB; assay type: cell-based; details: FIG. 8
Description: as §1

[5] = test system: HaCaT: immortalized human keratinocyte; experiment: Toxicity on HaCaT; assay type: cell-based; details: FIG. 8
Description: as §1

[6] = test system: BEC: blood endothelial cell; experiment: Toxicity on BEC; assay type: cell-based; details: FIG. 8
Description: as §1

[7] = test system: lymphatic endothelial cell (LEC); experiment: Stability test: LEC sprouting activity after storage; assay type: cell-based; details: prolonged exposure at 4° C., 25° C. and 50° C. for one week
Description: The D. giraldii extract and daphnetoxin were subjected to stability tests.

[8] = Stability test by HPLC-UV-MS analysis; assay type: physicochemical; details: storage in DMSO for one week at 50° C.

## C=C(C)[C@]12C[C@@H](C)[C@@]34OC(c5ccccc5)(O[C@@H]1[C@@H]3[C@@H]1O[C@]1(CO)[C@@H](O)[C@]1(O)C(=O)C(C)=C[C@H]14)O2 [Daphnetoxin]
[1]; at 100 nM, FIG. 7A
  LEC sprouting, sprouts/bead: 4.05 sprouts/bead
[1]; fraction from D. giraldii dichloromethane extract, FIG. 6
  sprouting activity of HPLC fractions (HPLC-based activity profiling): main active compound
[1]; further experiment, 6 replicates, FIG. 7A
  concentration from which LEC sprouting is significantly induced: ≥ 10 nM
[2]; 6 replicates, FIG. 7B
  concentration from which LEC proliferation is significantly induced: ≥ 0.003 pM
[2]; Ex. 8, FIG. 8
  LEC proliferation, specificity: promoted lymphatic endothelial cell proliferation specifically
[2]; at 0.03 pM (most potent concentration), FIG. 7B
  LEC proliferation: 247±38 % of control (0.1% DMSO)
[3]
  cytotoxic effects on LEC: did not evoke any cytotoxic effects
[4]
  cytotoxic effects on HDFB: did not evoke any cytotoxic effects
[5]
  cytotoxic effects on HaCaT: did not evoke any cytotoxic effects
[6]
  cytotoxic effects on BEC: did not evoke any cytotoxic effects
[7]
  activity of LEC sprouting after storage: consistent activity of LEC sprouting
[8]
  stability by HPLC-UV-MS analysis: confirms stability
